± gives the expanded uncertainty stated by the source.
Experiments:
[1] = 100 kPa, Liquid; for viscosity: Concentric cylinders viscometry; for mass density: Vibrating tube method
[2] = xn = mol fraction of the nth substance listed; conditions: 100 kPa, Liquid, x1 = 1; for viscosity: Concentric cylinders viscometry; for mass density: Vibrating tube method

What does the source list for `CCCCn1cc[n+](C)c1.[Cl-]` [1-butyl-3-methylimidazolium chloride]?
viscosity ([1]; 348.15 K): 217 ± 11 mPa·s; mass density ([1]; 348.15 K): 1053.9 ± 2.5 kg/m3; viscosity ([1]; 353.15 K): 162.1 ± 8 mPa·s; mass density ([1]; 353.15 K): 1051.2 ± 2.5 kg/m3; viscosity ([1]; 358.15 K): 123.3 ± 6 mPa·s; mass density ([1]; 358.15 K): 1048.5 ± 2.5 kg/m3; viscosity ([1]; 363.15 K): 95.6 ± 4.6 mPa·s; mass density ([1]; 363.15 K): 1045.9 ± 2.5 kg/m3; viscosity ([1]; 368.15 K): 75.39 ± 3.6 mPa·s; mass density ([1]; 368.15 K): 1043.3 ± 2.5 kg/m3; viscosity ([1]; 373.15 K): 60.26 ± 2.9 mPa·s; mass density ([1]; 373.15 K): 1040.8 ± 2.5 kg/m3

Which viscosity ([2]; 348.15 K) does the source give for `CCCCn1cc[n+](C)c1.[Cl-]` [1-butyl-3-methylimidazolium chloride] + CCCC[n+]1ccn(C)c1.O=S(=O)([N-]S(=O)(=O)C(F)(F)F)C(F)(F)F here?
Its viscosity is 217 ± 11 mPa·s.

And the mass density ([2]; 348.15 K)?
Its mass density is 1053.9 ± 2.5 kg/m3.

What about the viscosity ([2]; 353.15 K) of the same molecule?
The viscosity was 162.1 ± 8 mPa·s.

And the mass density ([2]; 353.15 K)?
Its mass density is 1051.2 ± 2.5 kg/m3.

What about the viscosity ([2]; 358.15 K) of the same molecule?
Its viscosity is 123.3 ± 6 mPa·s.

What about the mass density ([2]; 358.15 K) of the same molecule?
Its mass density is 1048.5 ± 2.5 kg/m3.

What about the viscosity ([2]; 363.15 K) of the same molecule?
The viscosity was 95.6 ± 4.6 mPa·s.

And the mass density ([2]; 363.15 K)?
The mass density was 1045.9 ± 2.5 kg/m3.

What about the viscosity ([2]; 368.15 K) of the same molecule?
Its viscosity is 75.39 ± 3.6 mPa·s.

What about the mass density ([2]; 368.15 K) of the same molecule?
Its mass density is 1043.3 ± 2.5 kg/m3.

And the viscosity ([2]; 373.15 K)?
The viscosity was 60.26 ± 2.9 mPa·s.

What about the mass density ([2]; 373.15 K) of the same molecule?
The mass density was 1040.8 ± 2.5 kg/m3.
